The text below walks through data of US20250170093A1, “ENDOPLASMIC RETICULUM PROTEIN HYOU1-BINDING COMPOUND FOR INHIBITING ENDOPLASMIC RETICULUM-MITOCHONDRIAL INTERACTION AND USES THEREOF” (UIF (University Industry Foundation), Yonsei Univeristy, priority 2023, published 2025).

In series [1] the test system is ApoE−/− mice fed a high-cholesterol diet. As to the kind of experiment: Atherosclerosis-induced animal model (ApoE-/- mice fed a high-cholesterol diet). As to conditions: 20 mg/kg intraperitoneally every 2 days for 8 weeks. The series is classed as in vivo, mouse. How it is done: Mouse experiments were performed in accordance with the ethical guidelines approved by the Institutional Animal Care and Use Committee of Yonsei University (IACUC-A-202208-1519-01). ApoE−/− mice were provided by Dr. Goo Taeg Oh (Ewha Womans University, Korea) and were housed in a pathogen-free system with a 12-hour light-dark cycle with free access to water and food. The mice were fed a high-cholesterol diet from 6 weeks after birth until the end of the experiment. At the end of the experiment, the mice were anesthetized with Avertin (2,2,2-tribromoethanol) and perfused with PBS through the left ventricle.
The outer membrane fat of the aorta isolated from the sacrificed animals was removed, dissected longitudinally, and fixed on a white silicone plate. After overnight fixation with 4% PFA, aortas were stained overnight with Oil Red O and washed with PBS. The heart and liver were then harvested and fixed overnight in 4% PFA and then placed in a 30% sucrose solution. After preparing tissues and preserving through cryopreservation (OCT) or paraffin embedding, sections were prepared for histologic analysis. For analysis of atherosclerotic lesions, the bottom of the heart, including the proximal aorta, was embedded in OCT medium, stained using the Oil Red O stain, and then quantified using the Image J software. […]

The subject of series [2] is HUVECs. As to the kind of experiment: Transmission electron microscopy of ER and mitochondria in HUVECs. As to conditions: CTS 5 μM; control group 61%. The series is classed as cell-based, human. The source says:
First, HUVECs were imaged by transmission electron microscopy (TEM) to visualize the ER and mitochondria, and the ER-mitochondrial distance was observed. […] Increased contact between the ER and mitochondria can lead to cellular stress and dysfunction. CTS can help restore cellular homeostasis and prevent adverse effects associated with increased ER-mitochondrial interactions.

The target of the next series is T1, HYOU1 (Homo sapiens, UniProt Q9Y4L1).
T1 construct: endogenous in cells; host or cells: HUVEC
T1 sequence (Q9Y4L1 33-999): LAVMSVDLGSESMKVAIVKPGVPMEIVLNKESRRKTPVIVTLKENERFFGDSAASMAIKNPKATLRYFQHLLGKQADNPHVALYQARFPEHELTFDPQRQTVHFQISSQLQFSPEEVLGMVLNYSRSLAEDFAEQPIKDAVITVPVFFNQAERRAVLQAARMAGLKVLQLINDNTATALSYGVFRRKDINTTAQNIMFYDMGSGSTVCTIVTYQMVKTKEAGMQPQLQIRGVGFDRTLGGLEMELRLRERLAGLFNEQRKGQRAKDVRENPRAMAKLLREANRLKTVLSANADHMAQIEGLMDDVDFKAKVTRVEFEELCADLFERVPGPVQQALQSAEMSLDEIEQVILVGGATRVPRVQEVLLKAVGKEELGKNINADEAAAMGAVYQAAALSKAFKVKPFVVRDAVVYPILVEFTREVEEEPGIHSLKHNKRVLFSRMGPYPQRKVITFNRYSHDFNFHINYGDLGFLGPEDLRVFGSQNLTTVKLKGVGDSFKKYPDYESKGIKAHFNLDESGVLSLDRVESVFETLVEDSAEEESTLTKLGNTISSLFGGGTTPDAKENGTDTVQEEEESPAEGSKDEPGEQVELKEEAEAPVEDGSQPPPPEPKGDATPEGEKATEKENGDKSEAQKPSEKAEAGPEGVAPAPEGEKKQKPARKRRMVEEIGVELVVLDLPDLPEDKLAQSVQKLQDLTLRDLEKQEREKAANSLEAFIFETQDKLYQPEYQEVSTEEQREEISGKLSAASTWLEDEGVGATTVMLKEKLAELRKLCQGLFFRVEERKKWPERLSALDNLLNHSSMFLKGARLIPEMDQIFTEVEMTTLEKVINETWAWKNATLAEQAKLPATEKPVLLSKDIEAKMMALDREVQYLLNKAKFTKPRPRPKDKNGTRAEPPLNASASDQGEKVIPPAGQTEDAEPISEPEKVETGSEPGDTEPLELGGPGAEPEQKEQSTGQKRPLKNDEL
As to the kind of experiment: DARTS-western analysis in HUVEC lysate. The series is classed as binding. Particulars: dose-dependent, read-out: EC50 of resistance to degradation by Pronase. How it is done: HepG2 or HUVECs (1×10^7 cells) were lysed by homogenization in PBS buffer containing a protease/phosphatase inhibitor cocktail (½ tablet, 25 mL; Pierce), and the concentration of total proteins was determined by BCA assay. All steps were performed on ice to avoid premature protein degradation. The cell lysate (final protein concentration: 1 mg/mL, 100 μL) was aliquoted into a 1.5-mL tube and incubated with 0.01 to 10 μM CTS (in 1 μL DMSO) for 3 hours at 4° C. with gentle stirring. Pronase (non-specific protease) was then added (final concentration: 1 μg/mL) and reaction was performed for 10 minutes. After adding a 6×SDS buffer, the Pronase reaction was stopped by heating for 7 minutes.
DARTS-western analysis was used to validate HYOU1 as a target protein of CTS in the lysate of HUVECs. […] In addition, […] to degradation by Pronase (protease) in a dose-dependent manner, with an EC50 value calculated to be about 1 μM (FIG. 5B).

Another series deals with p62, LC3B-II and α-SMA. Nature of the series: Western blot of autophagy and smooth muscle cell proliferation markers in PAH cell model. Format: cell-based, human. As to conditions: TGF-β-stimulated PASMCs, vs control group. How it is done:
Human pulmonary artery smooth muscle cells (PASMCs; 4-8 passages) were cultured in an SmGM2 basal medium (Lonza, CC-3181) containing 5% FBS, supplements (Lonza, CC-4149) and 1% antibiotics.
The cells were cultured in a chamber-type cell culture slide. When they reached 70% confluence, the medium was replaced with a medium containing 0.5% FBS and the cells were incubated for 4 hours to inhibit cell proliferation. The cells were then treated with DMSO and CTS (5 μM) while simultaneously stimulating with TGF-β (5 ng/ml) for 24 hours. The level of p62, LC3 and α-SMA was confirmed by western blot.
On the technique in general: In western blotting, separated proteins are transferred to a membrane and probed.

In series [3] the test system is HUVECs. Nature of the series: Mitochondrial calcium assay (Rhod-2) in HUVECs. Particulars: pretreated with xestospongin C, then treated with oxLDL. The series is classed as cell-based, human. How it is done:
To measure calcium content in mitochondria or cytosol, HUVECs were cultured overnight at a density of 1.5×10^4 cells/well in a chamber slide (8-well) and incubated with Rhod-2/AM (2 μM) (Invitrogen, R1244) or Fluo-4/AM (1 μM) (Invitrogen, F14201), respectively, for 30 minutes at room temperature. The cells were then incubated in a calcium-free Krebs-Ringer-HEPES buffer (pH 7.4) additionally for 30 minutes for de-esterification of the dye. Images were captured in real time using an LSM980 confocal microscope (Zeiss, Oberkochen, Germany).
In addition, it was investigated whether intracellular calcium was released from the ER and imported into the mitochondria in response to oxLDL. Specifically, it was confirmed that, when the HUVECs were treated with oxLDL along with the Rhod-2 dye, which is a marker of mitochondrial calcium, mitochondrial calcium level was increased. In contrast, when HUVECs were pretreated with xestospongin C, which is an IP3R antagonist, and then treated with oxLDL, there was no increase in the mitochondrial calcium level (FIG. 1D). This means that the oxLDL-induced increase in mitochondrial calcium is derived from the endoplasmic reticulum (ER).
Furthermore, in order to investigate whether change in the physical coupling between the ER and mitochondria affects communications between cell organelles, Ca^2+ transport from the ER to mitochondria was examined. […]

For `C[C@H]1COC2=C1C(=O)C(=O)c1c2ccc2c1CCCC2(C)C` [CTS, Cryptotanshinone], in series [1], the body weight entry was “did not affect”. Also, the “number of dots closer than 40 nm (ER-mitochondrial distance)” value in the series with HUVECs [2] is on record as 37%. Besides, the EC50 – broadly, the concentration that produces a half-maximal response – at HYOU1 is about 1000 nM. The “decrease of expression of autophagy and smooth muscle cell proliferation markers” value with p62, LC3B-II and α-SMA is recorded as “approximately 40%”.
For `C1CCC[C@H]2CCCN3CC[C@@H](CCCCCC[C@@H]4CCCN5CC[C@@H](CC1)O[C@@H]45)O[C@@H]23` [xestospongin C], the “mitochondrial calcium level (Rhod-2)” value in the series on HUVECs [3] is “no increase”.
